Measured values published in patent US20260034065A1, “EXTENDED RELEASE PHARMACEUTICAL FORMULATION” (Douglas Pharmaceuticals Ltd., priority 2020, published 2026).

What was measured:
[1] = injected by any route of administration, e.g. Loo 2016; cited from earlier work
[2] = Study ZPS-603 Cohort 4: mood ratings (HAMA, FQ, MADRS) in patients with TRD/TRA; format: in vivo, human; conditions: study 603 cohort 4 participants (FIG. 7)
Procedure: The objective of Cohort 4 was to evaluate efficacy, safety, PK and PD of an extended release ketamine oral formulation in patients with treatment-resistant depression and/or treatment-resistant anxiety (TRD/TRA). […] The design was an open label multiple ascending dose study. The initial dose was 60 mg, and could be escalated by an additional 60 mg 12 hourly, based on assessment of mood symptoms, to a maximum dose of 240 mg, with a total of 7 doses given 12 hourly between 0 and 72 hours. Endpoints included safety, tolerability, ketamine and norketamine PK, and PD (mood ratings including the Fear Questionnaire (FQ; Marks 1979), HAMA and MADRS, and dissociative symptom rating scale scores).
Anxiety Rating Scales: HAMA and FQ: Individual and group mean HAMA and FQ scores by timepoint are shown in FIG. 6 (6A: HAMA; 6B: FQ) There was a consistent trend for both scores to decrease over time, most noticeably in patients with higher baseline scores. […] All seven participants were assessed to be treatment responders (>50% reduction) based on changes in
There was a consistent trend for scores to decrease over time, most noticeably in patients with higher baseline scores. All seven participants were assessed to be treatment responders (>50% reduction) based on change in MADRS scores. […]

[3] = subcutaneous dosing, unpublished data

CNC1(c2ccccc2Cl)CCCCC1=O (stereo not drawn) [Ketamine solution, 2-(2-chlorophenyl)-2-(methylamino) cyclohexan-1-one]
duration of marked dissociative symptoms after dosing [1]: up to 60 minutes | onset of improvement of anxiety symptoms [2]: 1 to 2 h | Mean Tmax-ketamine [3]: 38.4 min
